Measurements from patent publication US20210196779A1, “Compositions and Methods for Treating Steroid Hormone-Related Diseases or Disorders” (YALE UNIVERSITY, priority 2018, published 2021).

Experiments:
Brd4 = assay: Western blot, MCF7 and 22RV1 cells, Brd4; type: cell-based; details: MCF7 (with or without E2) or 22RV1 (with or without DHT), 24 h
Method: (§1) Western blot analysis was used to determine the protein expression using protein specific antibodies. β-actin or histone 3 was used to normalize protein loading.
(§2) Total cell lysis was conducted using 2×SDS sample buffer (62.5 mM Tris-HCl, 2% SDS, 10% glycerol, 50 mM DTT, and 0.05% bromophenol blue). The samples were sonicated for 10 s to shear DNA. Cell nuclei were isolated using Tris buffer saline with 0.4% NP40. Cell extracts were then electrophoresed through 10% SDS-polyacrylamide gels and transferred to 0.2 μm nitrocellulose membranes (Bio-Rad Laboratories, Hercules, Calif.) with a Miniprotein II transferring apparatus (Bio-Rad). The membranes were blocked and probed in TBS-T buffer (1×TBS buffer, 0.2% Tween 20) containing 5% non-fat milk. […] Enhanced chemiluminescence reagents (Perkin-Elmer Life Science Products, Boston, Mass.) were used to visualize the immunoreactive bands and the densities of protein bands were scanned analyzed using ImageJ software from the NIH.

H3K14 acetylation = assay: Western blot, MCF7 and 22RV1 cells, H3K14 acetylation; type: cell-based; details: MCF7 and 22RV1 cells (FIGS. 11A-11B), 24 h
Method: as §1, §2

## CC(=O)OCC1OC(Oc2cc3c(c(O)c2C)C(=O)c2ccc(O)cc2C3=O)C(OC2OC(C)C(O)C(O)C2O)C(O)C1O [RGA, 1,3,6-Trihydroxy-2-methyl-9,10-anthracenedione 3-O-[α-L-Rhamnopyranosyl-(1→2)-6-O-acetyl-β-D-glucopyranoside]]
Brd4
  Brd4 protein expression: decreased
H3K14 acetylation
  H3K14 acetylation: did not have a large impact
